Test results reported in publication PMC7880690, “Chemical genetics and proteome-wide site mapping reveal cysteine MARylation by PARP-7 on immune-relevant protein targets” (eLife, 2021).

Columns and labels:
[1] = molecular target: T1, PARP-7 (Homo sapiens, UniProt Q7Z3E1); conditions: time course in HEK 293 T cells
T1 sequence (Q7Z3E1 1-657): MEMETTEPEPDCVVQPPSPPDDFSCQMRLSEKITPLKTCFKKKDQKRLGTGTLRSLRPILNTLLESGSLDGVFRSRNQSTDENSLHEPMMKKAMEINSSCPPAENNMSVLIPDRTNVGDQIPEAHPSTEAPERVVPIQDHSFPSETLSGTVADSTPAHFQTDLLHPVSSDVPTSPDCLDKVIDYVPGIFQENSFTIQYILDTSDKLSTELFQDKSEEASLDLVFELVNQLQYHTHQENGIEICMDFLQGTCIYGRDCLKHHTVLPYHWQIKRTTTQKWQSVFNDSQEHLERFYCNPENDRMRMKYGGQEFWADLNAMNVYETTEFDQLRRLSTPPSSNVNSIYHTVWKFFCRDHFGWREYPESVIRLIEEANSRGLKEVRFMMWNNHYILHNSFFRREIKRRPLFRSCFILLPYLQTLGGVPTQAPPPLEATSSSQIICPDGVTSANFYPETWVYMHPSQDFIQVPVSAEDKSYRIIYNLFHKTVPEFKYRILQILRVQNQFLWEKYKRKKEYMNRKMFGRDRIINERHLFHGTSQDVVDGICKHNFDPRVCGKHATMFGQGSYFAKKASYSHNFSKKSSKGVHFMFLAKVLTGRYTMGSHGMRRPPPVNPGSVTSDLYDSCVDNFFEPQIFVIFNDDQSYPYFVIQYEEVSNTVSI

[2] = molecular target: T2, IG-PARP-7 (I631G PARP-7) (Homo sapiens, UniProt Q7Z3E1, I631G); experiment: Labeling by orthogonal NAD+ analogs in HEK 293T lysates expressing GFP-IG-PARP-7 (click with biotin-azide, Streptavidin-HRP); type: biochemical; conditions: HEK 293 T cell lysates, 100 µM NAD+ analog
T2 construct: expressed in transfected cells; host or cells: HEK 293T (lysate)
T2 sequence (Q7Z3E1 whole entry I631G): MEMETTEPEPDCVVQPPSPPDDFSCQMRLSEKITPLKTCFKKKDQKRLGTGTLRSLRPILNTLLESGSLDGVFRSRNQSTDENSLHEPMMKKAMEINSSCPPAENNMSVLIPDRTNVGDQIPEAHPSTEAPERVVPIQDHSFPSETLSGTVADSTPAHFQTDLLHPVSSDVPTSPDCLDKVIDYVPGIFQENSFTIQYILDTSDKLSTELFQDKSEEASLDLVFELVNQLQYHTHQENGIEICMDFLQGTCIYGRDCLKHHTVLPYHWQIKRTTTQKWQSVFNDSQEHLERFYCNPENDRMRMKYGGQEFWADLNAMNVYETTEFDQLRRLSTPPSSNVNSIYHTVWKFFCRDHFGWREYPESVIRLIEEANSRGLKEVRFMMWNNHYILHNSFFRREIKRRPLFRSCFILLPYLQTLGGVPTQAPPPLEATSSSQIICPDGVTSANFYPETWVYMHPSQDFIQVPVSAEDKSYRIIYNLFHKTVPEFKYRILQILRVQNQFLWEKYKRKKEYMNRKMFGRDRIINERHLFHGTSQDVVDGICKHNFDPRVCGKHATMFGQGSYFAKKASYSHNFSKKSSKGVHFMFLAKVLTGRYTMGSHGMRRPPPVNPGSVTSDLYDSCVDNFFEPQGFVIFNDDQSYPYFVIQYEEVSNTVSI
Source text: Identifying the protein targets of PARP-7 is a critical first step toward unraveling its function in cells. In previous work we have developed an engineered enzyme—modified substrate strategy for identifying relevant targets of individual PARP family members ([Carter-O'Connell et al., 2014]; [Carter-O'Connell et al., 2016]; [Carter-O'Connell and Cohen, 2015]; [Carter-O'Connell et al., 2018]). This chemical genetic (CG) method uses engineered PARPs and an orthogonal NAD^+ analogue that contains a clickable handle (e.g. an alkyne) that is located at the N-6 position of the adenine ring (5-Bn-6-a-NAD^+). […] Importantly, 5-Bn-6-a-NAD^+ is not used by wild-type (WT) PARPs and in this way is orthogonal to native NAD^+. […] We therefore sought a new orthogonal NAD^+ analogue that would serve as an efficient substrate for floor position engineered PARP-7, I631G PARP-7 (IG-PARP-7) (Figure 1a).
Figure 1. A chemical genetic strategy for identifying the direct MARylation targets of PARP-7. (a) Schematic of chemical genetic approach for identifying direct targets of PARP-7. (b) Crystal structure of human PARP1 bound to the non-hydrolyzable NAD^+ analog benzamide adenine dinucleotide (BAD). PDB: 6bhv. […] Following copper-catalyzed click chemistry with biotin-azide, proteins were resolved by SDS-PAGE and biotinylated proteins were detected by Western blot detection using Streptavidin-HRP. […]

SMILES | decay of PARP-7-mediated MARylation of PARP-13.2 [1] | substrate for floor position engineered PARP-7 (IG-PARP-7) [2]
C[C@]1(c2nc3c(C(N)=O)cccc3[nH]2)CCCN1 [veliparib] | does not lead to the decay | 
C#CCNc1ncnc2c1ncn2C1OC(COP(=O)(O)OP(=O)([O-])OCC2OC([n+]3cc(Cc4ccccc4)cc(C(N)=O)c3)C(O)C2O)C(O)C1O (centres unmarked) [5-Bn-6-a-NAD^+, reference compound] |  | poor substrate
